{"source": "ChEMBL document CHEMBL4477238", "about": "“Ligand binding cooperativity: Bioisosteric replacement of CO with SO2 among thrombin inhibitors” (Bioorg Med Chem Lett, 2016)"}
{"biological_target": "Prothrombin (Homo sapiens, UniProt P00734)", "assay": "Inhibition of human alpha-thrombin using chromogenic substrate Pefachrome tPa measured every second for 20 mins by spectrophotometry", "units": {"Ki": "µM"}}
{"smiles": "CC(C)CC(=O)N1CCC[C@H]1C(=O)NCc1ccc(C(=N)N)cc1", "Ki": 4}
{"smiles": "N=C(N)c1ccc(CNC(=O)[C@@H]2CCCN2C(=O)Cc2ccccc2)cc1", "Ki": 0.2}
{"smiles": "CCS(=O)(=O)N1CCC[C@H]1C(=O)NCc1ccc(C(=N)N)cc1", "Ki": 117}
{"smiles": "CC(C)CS(=O)(=O)N1CCC[C@H]1C(=O)NCc1ccc(C(=N)N)cc1", "Ki": 3.4}
{"smiles": "N=C(N)c1ccc(CNC(=O)[C@@H]2CCCN2S(=O)(=O)Cc2ccccc2)cc1", "Ki": 2.5}
{"smiles": "CC(C)CCS(=O)(=O)N1CCC[C@H]1C(=O)NCc1ccc(C(=N)N)cc1", "Ki": 2.7}
{"smiles": "CCCS(=O)(=O)N1CCC[C@H]1C(=O)NCc1ccc(C(=N)N)cc1", "Ki": 12}
